The first assay deals with T1, mouse GnRH receptor (Mus musculus, UniProt Q01776).
T1 construct: expressed in transfected cells; host or cells: 293 cells
T1 sequence (Q01776 1-327): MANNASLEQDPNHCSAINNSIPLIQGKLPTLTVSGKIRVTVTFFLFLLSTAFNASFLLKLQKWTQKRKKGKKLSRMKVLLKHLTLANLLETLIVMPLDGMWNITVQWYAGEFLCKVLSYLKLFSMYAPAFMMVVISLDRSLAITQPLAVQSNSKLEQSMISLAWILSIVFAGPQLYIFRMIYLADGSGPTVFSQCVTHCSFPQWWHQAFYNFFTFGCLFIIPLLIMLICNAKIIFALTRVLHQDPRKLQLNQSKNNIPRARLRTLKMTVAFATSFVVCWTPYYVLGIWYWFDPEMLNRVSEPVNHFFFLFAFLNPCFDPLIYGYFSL
Kind of assay: Radioligand binding, 125I-GnRH-A, 293 cells expressing mouse GnRH receptors. As to conditions: 10 uM; read-out: % Inhib. @ 10 uM mGnRH. How it is done: All compounds were diluted in 1% DMSO (final assay concentration) in binding assay buffer. […] Reactions were terminated by rapid filtration onto 96-well Packard GF/C filters soaked in 0.1% polyethyleneimine. Filters were washed three times with PBS buffer, dried and counted on a Packard Topcount by liquid scintillation counting.
Assay conditions were identical for assessing compound activities at other species. […] IC50 values for control peptides and test compounds were calculated utilizing GraphPad Prism™ software.
The reaction mixture was vortexed and incubated for 1 min at room temperature. After one min, the mixture was vortexed and allowed to incubate for an additional minute. 2 ml of 0.5 M acetic acid/1% BSA was added to the reaction tube and the mixture was added to a C18 Sep-Pak cartridge. The cartridge was washed with subsequent washes of 5 ml H2O and 5 ml 0.5M acetic acid and then eluted with 5×1 ml of 60% CH3CN/40% 0.5M acetic acid. The eluate was diluted with 3× volume of HPLC buffer A (0.1% TFA in H2O) and loaded onto a C18 column. […] The radioactive fractions (750 ed/fraction) are collected into clean polypropylene tubes containing 100 μl of 10% BSA. Fractions were assessed for biological activity by radioligand binding.
As for `CCC(COC)NC(=O)c1ccc(Cc2cc3c(cc2C)C(C)(C)CCC3(C)C)o1` (stereo not drawn), the inhibition at 10 µM stood at 98%.
Still for that read-out and setting: with `Cc1cc2c(cc1Cc1ccc(C(=O)N(Cc3ccc(O)cc3)C3CCN(Cc4ccccc4)C3)o1)C(C)(C)CCC2(C)C` (stereo not drawn) the figure was 82%; with `Cc1cc2c(cc1Cc1ccc(C(=O)N(CCCN3CCN(C)CC3)Cc3ccc(Cl)c(Cl)c3)o1)C(C)(C)CCC2(C)C`, 104%; with `Cc1cc2c(cc1Cc1ccc(C(=O)N(CCCN3CCN(C)CC3)Cc3ccc(OCCCN(C)C)cc3)o1)C(C)(C)CCC2(C)C`, 100%.
The same measure, in the same setting: with `Cc1cc2c(cc1Cc1ccc(C(=O)N(CCCO)Cc3ccc(Cl)cc3Cl)o1)C(C)(C)CCC2(C)C` the figure was 94%; with `CCc1ccc(CN(CCCO)C(=O)c2ccc(Cc3cc4c(cc3C)C(C)(C)CCC4(C)C)o2)cc1`, 88%; with `Cc1cc2c(cc1Cc1ccc(C(=O)N(CCCO)CCC(C)CCCC(C)(C)O)o1)C(C)(C)CCC2(C)C` (stereo not drawn), 99%.
Regarding `Cc1cc2c(cc1Cc1ccc(C(=O)N3Cc4ccccc4CC3CO)o1)C(C)(C)CCC2(C)C` (stereo not drawn), the inhibition at 10 µM was found to be 61%.
Consider `CCN(CC)CCCC(C)N(Cc1ccc(F)cc1)C(=O)c1ccc(Cc2cc3c(cc2C)C(C)(C)CCC3(C)C)o1` (stereo not drawn), for which the inhibition at 10 µM was 102%.
Regarding `Cc1cc2c(cc1Cc1ccc(C(=O)N(CCCc3ccccc3)Cc3ccc(Oc4ccccc4)cc3)o1)C(C)(C)CCC2(C)C`, the inhibition at 10 µM is 17%.
With `Cc1cc2c(cc1Cc1ccc(C(=O)NCC3CC3)o1)C(C)(C)CCC2(C)C`, the inhibition at 10 µM is 86%.
Still for that read-out and setting: the same measure for `Cc1ccc(C(C)NC(=O)c2ccc(Cc3cc4c(cc3C)C(C)(C)CCC4(C)C)o2)cc1` (stereo not drawn): 97%; for `CCCCN(CCC#N)C(=O)c1ccc(Cc2cc3c(cc2C)C(C)(C)CCC3(C)C)o1`: 87%; for `Cc1cc2c(cc1Cc1ccc(C(=O)N(C)C3CCCC3)o1)C(C)(C)CCC2(C)C`: 100%.
As for `Cc1cc2c(cc1Cc1ccc(C(=O)NC[C@@H](C)c3ccccc3)o1)C(C)(C)CCC2(C)C`, the inhibition at 10 µM was 70%.
Still for that read-out and setting: with `Cc1cc2c(cc1Cc1ccc(C(=O)N3CCN(C4Nc5ccccc5Oc5ccc(Cl)cc54)CC3)o1)C(C)(C)CCC2(C)C` (stereo not drawn) the figure was 5%; with `Cc1cc2c(cc1Cc1ccc(C(=O)N(CCC#N)CC3CCCO3)o1)C(C)(C)CCC2(C)C` (stereo not drawn), 95%; with `CCCN(CCC#N)C(=O)c1ccc(Cc2cc3c(cc2C)C(C)(C)CCC3(C)C)o1`, 94%.
In the case of `Cc1cc2c(cc1Cc1ccc(C(=O)N(C)CCC(O)c3ccccc3)o1)C(C)(C)CCC2(C)C` (stereo not drawn), the inhibition at 10 µM is 99%.
As to `CCN(CCCCO)C(=O)c1ccc(Cc2cc3c(cc2C)C(C)(C)CCC3(C)C)o1`, the inhibition at 10 µM was 94%.
On to `Cc1cc2c(cc1Cc1ccc(C(=O)N3CCCC(C)C3)o1)C(C)(C)CCC2(C)C` (stereo not drawn), for which the inhibition at 10 µM is 97%.
Still for that read-out and setting: the same measure for `CCN(Cc1ccccc1)C(=O)c1ccc(Cc2cc3c(cc2C)C(C)(C)CCC3(C)C)o1`: 86%; for `Cc1cc2c(cc1Cc1ccc(C(=O)N(Cc3cccc(Cl)c3)Cc3cccc(Cl)c3)o1)C(C)(C)CCC2(C)C`: 17%.
Still for that read-out and setting: the same measure for `CCN(CC)CCCCNC(=O)c1ccc(Cc2cc3c(cc2C)C(C)(C)CCC3(C)C)o1`: 101%.
Same read-out and setting: the same measure for `CCN(CC)CCCN(CCCN(CC)CC)C(=O)c1ccc(Cc2cc3c(cc2C)C(C)(C)CCC3(C)C)o1`: 69%; for `CCN(CC)CCCN(C)C(=O)c1ccc(Cc2cc3c(cc2C)C(C)(C)CCC3(C)C)o1`: 92%.
Consider `Cc1cc2c(cc1Cc1ccc(C(=O)N3CCN(C(C)c4ccccc4)CC3)o1)C(C)(C)CCC2(C)C` (stereo not drawn), for which the inhibition at 10 µM amounted to 91%.
`Cc1cc2c(cc1Cc1ccc(C(=O)N3CCN(C(C)C)CC3)o1)C(C)(C)CCC2(C)C`: the inhibition at 10 µM came to 100%.
On to `Cc1cc2c(cc1Cc1ccc(C(=O)N3CCN(c4ccc(OCc5ccccc5)cc4)CC3)o1)C(C)(C)CCC2(C)C`, for which the inhibition at 10 µM was 44%.
On the same count and under the same terms, with `Cc1cc2c(cc1Cc1ccc(C(=O)N(CC#N)CC#N)o1)C(C)(C)CCC2(C)C` the figure was 64%; with `Cc1cc2c(cc1Cc1ccc(C(=O)N(C)[C@@H](C)Cc3ccccc3)o1)C(C)(C)CCC2(C)C`, 59%.
Take `Cc1cc2c(cc1Cc1ccc(C(=O)N[C@@H](C)C(O)c3ccccc3)o1)C(C)(C)CCC2(C)C` (stereo partly drawn): the inhibition at 10 µM came out at 63%.
Regarding `Cc1cc2c(cc1Cc1ccc(C(=O)NC(C)(C)C(=O)OC(C)(C)C)o1)C(C)(C)CCC2(C)C`, the inhibition at 10 µM amounted to 75%.
Same read-out and setting: with `Cc1cc2c(cc1Cc1ccc(C(=O)NC3CCCCC3C3CCCCC3)o1)C(C)(C)CCC2(C)C` (stereo not drawn) the figure was 13%.
`COCCN1CCN(C(=O)c2ccc(Cc3cc4c(cc3C)C(C)(C)CCC4(C)C)o2)CC1`: the inhibition at 10 µM came out at 81%.
Still for that read-out and setting: with `Cc1cc2c(cc1Cc1ccc(C(=O)N3CCc4[nH]c5c(F)cccc5c4C3)o1)C(C)(C)CCC2(C)C` the figure was 46%.
Consider `COc1ccccc1C1CCN(C(=O)c2ccc(Cc3cc4c(cc3C)C(C)(C)CCC4(C)C)o2)CC1`, for which the inhibition at 10 µM worked out at 63%.
The same measure, in the same setting: with `COc1ccc(CCN(CC(C)c2ccccc2)C(=O)c2ccc(Cc3cc4c(cc3C)C(C)(C)CCC4(C)C)o2)cc1OC` (stereo not drawn) the figure was 72%.
Turning to `Cc1cc2c(cc1Cc1ccc(C(=O)N3CCC(NC(=O)OC(C)(C)C)CC3)o1)C(C)(C)CCC2(C)C`, the inhibition at 10 µM was 67%.
For `Cc1cc2c(cc1Cc1ccc(C(=O)NCCN3CCN(c4nccc(NCC5CCCO5)n4)CC3)o1)C(C)(C)CCC2(C)C` (stereo not drawn), the inhibition at 10 µM was determined as 96%.
Consider `CCOC(CN(Cc1ccncc1)C(=O)c1ccc(Cc2cc3c(cc2C)C(C)(C)CCC3(C)C)o1)OCC`, for which the inhibition at 10 µM was determined as 31%.
On the same count and under the same terms, with `CCOC(=O)CC1C(=O)NCCN1C(=O)c1ccc(Cc2cc3c(cc2C)C(C)(C)CCC3(C)C)o1` (stereo not drawn) the figure was 98%; with `CCN(CC)CCN1CCN(C(=O)c2ccc(Cc3cc4c(cc3C)C(C)(C)CCC4(C)C)o2)CC1`, 98%; with `Cc1cc2c(cc1Cc1ccc(C(=O)N(C)CC(O)CO)o1)C(C)(C)CCC2(C)C` (stereo not drawn), 69%.
For `CCOC(CNC(=O)c1ccc(Cc2cc3c(cc2C)C(C)(C)CCC3(C)C)o1)OCC`, the inhibition at 10 µM is 100%.
Take `CCC(C)CN(CCO)C(=O)c1ccc(Cc2cc3c(cc2C)C(C)(C)CCC3(C)C)o1` (stereo not drawn): the inhibition at 10 µM came to 101%.
Take `C=CCN(C(=O)c1ccc(Cc2cc3c(cc2C)C(C)(C)CCC3(C)C)o1)C1CCCC1`: the inhibition at 10 µM turned out to be 95%.
In the case of `CCCCN(CC)CCNC(=O)c1ccc(Cc2cc3c(cc2C)C(C)(C)CCC3(C)C)o1`, the inhibition at 10 µM came to 101%.
Consider `CCCN(C(=O)c1ccc(Cc2cc3c(cc2C)C(C)(C)CCC3(C)C)o1)C(C)CC` (stereo not drawn), for which the inhibition at 10 µM worked out at 94%.
For `Cc1cc2c(cc1Cc1ccc(C(=O)NC(CO)(CO)CO)o1)C(C)(C)CCC2(C)C`, the inhibition at 10 µM was 13%.
For `Cc1cc2c(cc1Cc1ccc(C(=O)N3CCC3)o1)C(C)(C)CCC2(C)C`, the inhibition at 10 µM was 63%.
As for `Cc1cc2c(cc1Cc1ccc(C(=O)N(Cc3ccco3)C3CC(=O)N(Cc4ccccc4)C3=O)o1)C(C)(C)CCC2(C)C` (stereo not drawn), the inhibition at 10 µM came to 20%.
On the same count and under the same terms, with `Cc1cc2c(cc1Cc1ccc(C(=O)N3CCCC3C(O)(c3ccccc3)c3ccccc3)o1)C(C)(C)CCC2(C)C` (stereo not drawn) the figure was 31%; with `Cc1cc2c(cc1Cc1ccc(C(=O)N3CCN(C(=O)C(c4ccccc4)c4ccccc4)CC3)o1)C(C)(C)CCC2(C)C`, 36%; with `Cc1cc2c(cc1Cc1ccc(C(=O)N3CCN(C(c4ccccc4)c4ccccc4)CC3)o1)C(C)(C)CCC2(C)C`, 33%.
With `CC1(C)CCC(C)(C)c2cc(Cc3ccc(C(=O)NC4c5ccccc5-c5ccccc54)o3)ccc21`, the inhibition at 10 µM was 53%.

The assay is the same for the next values; noted with them: 1 h, substrate remaining; 10 uM compound; closer to zero = closer to 100% inhibition; read-out: S%R 10 uM mGnRHR.
For the compound `Cc1cc2c(cc1Cc1ccc(C(=O)NCCC3CCCN3C)o1)C(C)(C)CCC2(C)C` (stereo not drawn) [Compound 456], the remaining activity at 10 µM was -12%.
On to `Cc1cc2c(cc1Cc1ccc(C(=O)NCCc3cccnc3)o1)C(C)(C)CCC2(C)C` [Compound 457], for which the remaining activity at 10 µM is -3%.
Consider `Cc1cc2c(cc1Cc1ccc(C(=O)NCCNCCNc3ccccc3)o1)C(C)(C)CCC2(C)C` [Compound 458], for which the remaining activity at 10 µM worked out at 29%.
Take `Cc1cc2c(cc1Cc1ccc(C(=O)NC(CCCNC(N)N)C(=O)O)o1)C(C)(C)CCC2(C)C` (stereo not drawn) [Compound 459]: the remaining activity at 10 µM is 53%.

The assay is the same for the next values; noted with them: read-out: % Inhib. @ 10 uM mGnRH.
On to `Cc1cc2c(cc1Cc1ccc(C(=O)N3CCC(O)(O)CC3)o1)C(C)(C)CCC2(C)C`, for which the inhibition at 10 µM was 22%.
As for `Cc1cc2c(cc1Cc1ccc(C(=O)N3CCC4(CC3)OCCCO4)o1)C(C)(C)CCC2(C)C`, the inhibition at 10 µM stood at 99%.
Consider `Cc1cc2c(cc1Cc1ccc(C(=O)N[C@H]3CN4CCC3CC4)o1)C(C)(C)CCC2(C)C`, for which the inhibition at 10 µM was 12%.

For the origin of these results see patent publication US7101878B1 (Agouron Pharmaceuticals, Inc., priority 1998, dated 2006).
